Where two headings read alike, the source gives them in different places.
Legend:
[1] = system: Pseudomonas aeruginosa PA14; experiment: Static peg assay for prevention of biofilm formation (Calgary device, crystal violet); assay type: cell-based
How it was run: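 P. aeruginosa PA14 overnight TSB culture diluted 1:100 into broth with two-fold compound dilutions, biofilms grown 24 h static on polystyrene pegs of a Calgary device at 25 °C (TSB 1/20), 30 °C or 37 °C (CFA and/or LBNS). Biofilm quantified by crystal violet, extracted with 30% acetic acid, A570.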

[2] = system: Salmonella Typhimurium ATCC 14028; experiment: Antibacterial activity: growth inhibition, OD600 after 24 h (GIC50); assay type: cell-based
Description: Evaluation of antibacterial-inhibitory activity of some substituted 2-amino-1H-imidazoles of the invention was carried out by diluting an overnight culture of Salmonella Typhimurium ATCC 14028 into a liquid medium. 200 μl of the diluted overnight culture was added to each well of a microtiter plate together with different concentrations of the test compound (1/2 dilution series of the compound). After an incubation of 24 hours the optical density at 600 nm of each well was determined with a microtiter plate reader.
Starting from a 40 mM stock solution of each compound in DMSO, two-fold serial dilutions in 100 μl liquid broth per well were prepared in dublicate in sterile transparant microtiter plates. The broth used was TSB 1/20 for measurements at 25° C. and CFA (in case of Salmonella Typhimurium) and LBNS (in case of Pseudomonas aeruginosa) for measurements at 37° C. Subsequently an overnight culture of the bacteria (S. Typhimurium ATCC14028 or P. aeruginosa PA14) was diluted 1/200 into the corresponding liquid broth and 100 μl was added to each well of the microtiterplate resulting in a total amout of 200 μl medium per well. After an incubation of 24 hours the optical density at 600 nm of each well was determined with a microtiter plate reader (VERSAmax, Molecular Devices).
Evaluation of antibacterial-inhibitory activity of some substituted imidazo[1,2-a]pyrimidinium bromide salts of the invention was carried out by diluting an overnight culture of Salmonella Typhimurium ATCC14028 or Pseudomonas aeruginosa PA141/200 into liquid medium. 200 μl of the diluted overnight culture was added to each well of a microtiterplate together with different concentrations of the test compound (1/2 dilution series of the compound). After an incubation of 24 hours the optical density at 600 nm of each well was determined with a microtiter plate reader.

[3] = system: S. Typhimurium ATCC14028; experiment: Static peg assay for prevention of biofilm formation (Calgary device, crystal violet); assay type: cell-based, Salmonella Typhimurium
How it was run: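 Calgary 96-peg device, ca. 10^6 cells of ATCC14028 per well in TSB 1/20 for 24 h at 25° C (or 48 h at 16° C, medium and compound renewed at 24 h), or in CFA broth for 24 h at 37° C, static, with two-fold compound dilutions. Crystal violet stain, acetic acid extraction, OD570. IC50 from 2–3 independent experiments.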

[4] = system: S. Typhimurium ATCC14028; experiment: Bioscreen assay: influence on planktonic growth curve; assay type: cell-based, Salmonella Typhimurium; details: 40 μM; for Effect on growth at: 40 μM (S. Typhimurium): planktonic growth, 25° C.
Excerpt: (§1) Some of the tested compounds show a concentration range in which biofilm formation is inhibited but no effect on planktonic growth is observed. These compounds are particularly interesting for prevention of biofilm formation since the development of resistance against these compounds is less likely. Table 8 indicates whether the different compounds have an effect on the planktonic growth of the bacteria at the IC50 for biofilm inhibition. To construct Table 8, the effect of the tested compounds on the growth curve of the bacteria was determined at a concentration equal to the IC50 for biofilm inhibition, by using the Bioscreen system available from Oy Growth Curves Ab Ltd). The Bioscreen device from Oy Growth Curves Ab Ltd was used for measuring the influence of the chemical compounds on the planktonic growth of Salmonella Typhimurium and Pseudomonas aeruginosa. The Bioscreen is a computer controlled incubator/reader/shaker that uses 10×10 well microtiter plates and measures light absorbance of each well at a specified wave length in function of time. An overnight culture of S. […] The broth used was TSB 1/20 for the experiments at 16° C. and 25° C. For experiments at 37° C. CFA medium was used for S. […] As a control 3 μl of the appropriate solvent (DMSO or EtOH) was also added to the plate in 3- or 4-fold. The microtiter plate was incubated in the Bioscreen device at 16° C., 25° C. or 37° C. for at least 36 hours, with continious medium shaking. The absorbance of each well was measured at 600 nm each 15 minutes. Excel was used to generate the growth curves for treated the treated wells and the untreated control wells. Some of the compounds show a concentration range in which biofilm formation is inhibited but no effect on the planktonic growth is observed. Table 14 indicates if the different compounds have an effect on the planktonic growth of the bacteria at the IC50 for biofilm inhibition. To construct this table the effect of the compounds on the growth curve of the bacteria was determined at a concentration equal to the IC50 for biofilm inhibtion, by using the Bioscreen system from Oy Growth Curves Ab Ltd.

[5] = system: S. Typhimurium ATCC14028; experiment: as above; assay type: cell-based, Salmonella Typhimurium; design: key: x: no influence on the planktonic growth at the IC50 for biofilm inhibition; ∘: planktonic growth is retarded at the IC50 for biofilm inhibition; details: planktonic growth at the IC50 for biofilm inhibition, 25° C.
Excerpt: as §1

[6] = system: S. Typhimurium SL1344; experiment: Static peg assay for prevention of biofilm formation (Calgary device, crystal violet); assay type: cell-based; details: Salmonella enterica, SL1344, 16° C., read-out: IC50 biofilm inhibition
Description: After an incubation period of 24 hours at 25° C. or 37° C. or 48 hours at 16° C. the biofilms were visualized by crystal violet staining. […] Biofilm formation assays were carried out at 16° C., 25° C. and 37° C. […] Subsequently, an overnight culture of S. […] The pegged lid was placed on the microtiter plate and the plate was incubated for 48 hours at 16° C. or for 24 hours at 25° C. without shaking. During this incubation period biofilms were formed on the surface of the pegs. In case of the assay at 16° C., after 24 hours the lid was transferred into a new plate with medium and the specific molecules used for testing. […] The remaining attached bacteria were stained for 30 minutes with 200 μl 0.1% (w/v) crystal violet in an isopropanol/methanol/PBS solution (v/v 1:1:18). Excess stain was rinsed off by placing the pegs in a 96-well plate filled with 200 μl distilled water per well. After the pegs were air dried (30 min), the dye bound to the adherent cells was extracted with 30% glacial acetic acid (200 μl). The OD570 of each well was measured using the VERSAmax microtiter plate reader.

[7] = system: S. Typhimurium SL1344; experiment: Growth inhibition of planktonic cells in the peg assay plate (OD600); assay type: cell-based; details: Salmonella enterica, SL1344, 16° C.
[8] = system: S. Typhimurium ATCC14028; experiment: as above; assay type: cell-based, Salmonella Typhimurium; details: Salmonella enterica, ATCC14028, 16° C.
[9] = P. aeruginosa PA14, 25° C., read-out: IC50 for biofilm inhibition (25° C.)
[10] = OD600 after 24 hours of growth, read-out: GIC(50)
[11] = S. Typhimurium ATCC 14028, 25° C., read-out: IC50 for biofilm inhibition (25° C.)
[12] = 25° C., Table 11, read-out: IC50 (biofilm formation)
[13] = 25° C., Table 14, read-out: IC50 biofilm inhibition
[14] = 25° C., Table 19, read-out: IC50 (biofilm formation)
[15] = P. aeruginosa PA14, 25° C., read-out: P. aeruginosa IC50 (biofilm formation)
[16] = S. Typhimurium ATCC 14028, 25° C., read-out: S. Typhimurium IC50 (biofilm formation)
[17] = 25° C., Table 22, read-out: P. aeruginosa IC50 (biofilm formation)
[18] = 25° C., Table 22, read-out: S. Typhimurium IC50 (biofilm formation)
[19] = Salmonella enterica, 25° C., Table 11, read-out: IC50 (biofilm formation)
[20] = Salmonella enterica, 25° C., Table 14, read-out: IC50 biofilm inhibition
[21] = Salmonella enterica, ATCC14028, 16° C., read-out: IC50 biofilm inhibition

## Clc1ccc(-c2c[nH]c(NC3CCCC3)n2)cc1Cl
[1]; [9]
  IC50: 1 µM
[2]; [10]
  IC50: 50 µM
[3]; [11]
  IC50: 6 µM

## OC1(c2ccc(Cl)cc2)C[n+]2cccnc2N1C1CC1 (centres unmarked) [Compound 61]
[1]; 25° C., Table 18, read-out: P. aeruginosa IC50 (biofilm formation)
  IC50: 179 µM
[2]; 25° C.
  IC50: 100 to 200 µM
[3]; [12]
  IC50: 120 µM
[3]; [13]
  IC50: 120 µM
[3]; 25° C., Table 18, read-out: S. Typhimurium IC50 (biofilm formation)
  IC50: 82.7 µM

## COc1cccc(CCN2c3nccc[n+]3CC2(O)c2ccc(Cl)c(Cl)c2)c1.[Br-] (centres unmarked) [Compound 77]
[4]
  Effect on growth at 40 μM: ∘
[5]
  Influence on growth: x
[3]; [12]
  IC50: 7.39 µM
[3]; [13]
  IC50: 7.39 µM
[3]; [14]
  IC50: 7.23 µM

## OC1(c2ccc3c(c2)OCO3)C[n+]2cccnc2N1Cc1ccc2c(c1)OCO2 (centres unmarked) [Compound 80]
[2]; 25° C.
  IC50: 100 to 200 µM
[3]; [12]
  IC50: 102 µM
[3]; [13]
  IC50: 102 µM
[3]; [14]
  IC50: 53.7 µM

## Nc1nc(-c2ccc([N+](=O)[O-])cc2)c[nH]1 [Compound 90]
[4]
  Effect on growth at: 40 μM (S. Typhimurium): ∘
[1]; [15]
  IC50: 34.5 µM
[3]; [16]
  IC50: 17.6 µM

## CCCCCNc1ncc(-c2ccc(Cl)c(Cl)c2)[nH]1 [Compound 110]
[4]
  Effect on growth at: 40 μM (S. Typhimurium): ∘
[1]; [15]
  IC50: 0.7 µM
[3]; [16]
  IC50: 2.2 µM

## Clc1ccc(-c2cnc(NCc3ccccc3)[nH]2)cc1 [Compound 127]
[1]; [17]
  IC50: 26.3 µM
[2]; [10]
  IC50: 100 µM
[3]; [18]
  IC50: 30.7 µM
[3]; [11]
  IC50: 31 µM

## COc1cccc(CCNc2ncc(-c3ccc(Cl)c(Cl)c3)[nH]2)c1 [Compound 130]
[1]; [17]
  IC50: > 800 µM
[3]; [18]
  IC50: > 800 µM

## Fc1ccc(-c2cnc(NCc3ccc4c(c3)OCO4)[nH]2)cc1 [Compound 132]
[1]; [17]
  IC50: 456 µM
[3]; [18]
  IC50: 66.6 µM
[3]; [11]
  IC50: 68 µM

## c1ccc2c(-c3cnc(NCc4ccc5c(c4)OCO5)[nH]3)cccc2c1 [Compound 133]
[1]; Pseudomonas aeruginosa, PA14, 25° C., Table 22, read-out: P. aeruginosa IC50 (biofilm formation)
  IC50: 10.5 µM
[3]; Salmonella enterica, 25° C., Table 22, read-out: S. Typhimurium IC50 (biofilm formation)
  IC50: 261 µM

## COc1ccc(CCN2c3nccc[n+]3CC2(O)c2ccc([N+](=O)[O-])cc2)cc1OC (centres unmarked) [R1=2-(3,4-diMeO—Ph)Et, R3=4-NO2-Ph, R4=H, 1-(2-(3,4-dimethoxyphenyl)ethyl)-2-hydroxy-2-(4-nitrophenyl)-2,3-dihydro-1H-imidazo-[1,2-a]pyrimidin-4-ium bromide]
[2]; Salmonella enterica, 25° C.
  IC50: 100 to 200 µM
[3]; [19]
  IC50: 127 µM
[3]; [20]
  IC50: 127 µM

## COc1ccc(C2(O)C[n+]3cccnc3N2C2CCCCC2)cc1 (centres unmarked) [R1=Cyclohexyl, R3=4-MeO—Ph, R4=H, 1-cyclohexyl-2-hydroxy-2-(4-methoxyphenyl)-2,3-dihydro-1H-imidazo[1,2-a]pyrimidin-4-ium bromide]
[2]; Salmonella enterica, 25° C.
  IC50: 50 to 100 µM
[3]; [19]
  IC50: 112 µM
[3]; [20]
  IC50: 112 µM

## CSc1ccc(C2(O)C[n+]3cccnc3N2C2CCCCC2)cc1 (centres unmarked) [R1=Cyclohexyl, R3=4-MeS—Ph, R4=H, 1-cyclohexyl-2-hydroxy-2-(4-methylthiophenyl)-2,3-dihydro-1H-imidazo[1,2-a]pyrimidin-4-ium bromide]
[2]; Salmonella enterica, 25° C.
  IC50: 100 to 200 µM
[3]; [19]
  IC50: 118 µM
[3]; [20]
  IC50: 118 µM

## OC1(c2ccc(Br)cc2)C[n+]2cccnc2N1C1CC1.[Br-] (centres unmarked) [R1=Cyclopropyl, R3=4-Br—Ph, R4=H, 1-cyclopropyl-2-hydroxy-2-(4-bromophenyl)-2,3-dihydro-1H-imidazo[1,2-a]-pyrimidin-4-ium bromide]
[2]; Salmonella enterica, 25° C.
  IC50: 25 to 50 µM
[5]
  Influence on growth: x
[3]; [19]
  IC50: 27 µM
[3]; [20]
  IC50: 27 µM

## CCCCNc1nc(-c2ccc(F)cc2)c[nH]1 [R1=H, R2=Butyl, R3=H, R4=p-F—Ph]
[1]; [9]
  IC50: 6 µM
[3]; [11]
  IC50: 16 µM

## Brc1ccc(-c2c[nH]c(NC3CCCC3)n2)cc1 [R1=H, R2=cyclopentyl, R3=H, R4=p-Br—Ph]
[2]; [10]
  IC50: 50 to 100 µM

## Clc1ccc(-c2c[nH]c(NC3CCCC3)n2)cc1 [R1=H, R2=cyclopentyl, R3=H, R4=p-Cl—Ph]
[2]; [10]
  IC50: 45 µM
[3]; [11]
  IC50: 4 µM

## CC1[n+]2cccnc2N(c2ccccc2)C1(O)c1ccc(Br)cc1 (centres unmarked) [R1=Ph, R3=4-Br—Ph, R4=Me, 1-phenyl-2-hydroxy-2-(4-bromophenyl)-3-methyl-2,3-dihydro-1H-imidazo[1,2-a]pyrimidin-4-ium bromide]
[2]; Salmonella enterica, 25° C.
  IC50: 50 to 100 µM
[3]; [19]
  IC50: 57.5 µM
[3]; [20]
  IC50: 57.5 µM

## CCCCN1c2nccc[n+]2CC1(O)C(c1ccccc1)c1ccccc1 (centres unmarked) [R1=n-butyl, R3=dimethylphenyl, R4=H, 1-butyl-2-hydroxy-2-(diphenyl-methyl)-2,3-dihydro-1H-imidazo[1,2-a]pyrimidin-4-ium bromide]
[2]; Salmonella enterica, 25° C.
  IC50: 50 to 100 µM
[3]; [20]
  IC50: 72.1 µM

## c1ccc(Sc2ccc3c(c2)OCO3)c(CNC2=NCCN2)c1 [Specs3-1]
[6]
  IC50: ~65.9 µM
[7]
  IC50: 417 µM
[3]; [21]
  IC50: 42 µM
[8]
  IC50: 417 µM

## Fc1ccccc1Sc1ccccc1CNC1=NCCN1 [Specs3-3]
[6]
  IC50: 68.1 µM
[7]
  IC50: 265 µM
[3]; [21]
  IC50: 32.9 µM
[8]
  IC50: 265 µM

From US20130029981A1, “COMPOUNDS, COMPOSITIONS, AND METHODS FOR CONTROLLING BIOFILMS” (Katholieke Universiteit Leuven, priority 2009, published 2013)
